Assay results as given in PMC10291553, “Exploring Structure–Activity Relationships in Photodynamic Therapy Anticancer Agents Based on Ir(III)-COUPY Conjugates” (Journal of Medicinal Chemistry, 2023).

How the values were obtained:
[1] = system: A375, SK-MEL-28, HeLa, A2780 and A2780cis cancer cells; experiment: Photo- and cytotoxicity, statements across the studied cancer cell lines; type: cell-based; settings: for IC50: absence of light, regardless of the cell line, read-out: dark IC50 in the studied cancer cell lines
From the text: Having shown that the Ir(III)-COUPY conjugates can sensitize both type I and II ROS through spectroscopic techniques and readily internalize into living cells, their photocytotoxicity was screened in various cancer cell lines. This screening included two representative melanoma cell lines (human A375 and […] human SK-MEL-28) and cancer cells with resistance to the clinical drug cisplatin. For the latter, both sensitive and cisplatin-resistant ovarian cancer cells (A2780 and A2780cis) as well as HeLa cells, which also show a degree of chemoresistance to the platinum anticancer drug in vitro,[54] were used. For the determination of dark and light cytotoxicity, dose–response curves were assayed from both conditions to provide the correspondent IC50 values, which correspond to the concentration needed for inhibition of cell growth by 50%. Phototherapeutic index (PI) was calculated as the ratio of dark to light IC50 value for each compound.
A2780, A2780cis, HeLa, A375, and SK-MEL-28 cells were maintained at logarithmic growth-phase and cultured in 96-well plates at a density of 5000 cells/well in complete medium for 24 h at 310 K, 5% CO2 in a humidified incubator. For hypoxia experiments, a hypoxia condition was set up by Tissue Culture Service at University of Murcia using nitrogen (N2) to displace O2 down to a minimum of 2% in a Forma Steri-Cycle i160 incubator (Thermo Fisher Scientific). Serial dilutions of the compounds were added at the final concentrations in the range of 0–100 μM in a final volume of 100 μL per well. A light-based treatment schedule was performed as follows: 1 h incubation with the compounds in the dark, followed by 1 h incubation under irradiation conditions by placing the Photoreactor EXPO-LED from Luzchem (Canada) fitted with green lamps (final light intensity applied of 1.5 mW/cm^2 at λmax = 520 nm) inside the CO2 incubator. All the cell culture plates subjected to light irradiation included untreated controls to verify that cell viability was not affected by light. Then, treatment-containing media was removed, and fresh media was added for a 48 h cell recovery period; the temperature throughout the experiment remained at 310 K. Dark control samples were placed in the same dark conditions and then kept incubated for 1 h in the dark in the humidified CO2 incubator. Medium was then aspirated by suction, cells were loaded with 50 μL of MTT solution (1 mg/mL) for additional 4 h and then removed, and 50 μL of DMSO was added to solubilize the purple formazan crystals formed in active cells. The absorbance was measured at 570 nm using a microplate reader (FLUOstar Omega), and the IC50 values were calculated based on the inhibitory rate curves using the following equation [drawing 4] […]

[2] = design: method as in earlier work; settings: previously-reported parent compounds, cited from earlier work; for singlet oxygen quantum yield at 355 nm, ACN / singlet oxygen quantum yield at 355 nm, DCM / singlet oxygen quantum yield at 355 nm, PBS: excitation 355 nm
A2780cis cells [3] = experiment: Cellular accumulation by ICP-MS; type: cell-based; settings: 2 h treatment at 10 μM
Method: Briefly, A2780cis cells were seeded onto a 12-well plate (3 × 10^5 cells/well). Treatments with tested agents for 2 h were applied at 10 μM. Cisplatin was included for comparative purposes. Cells were then trypsinized, and pellets were counted. […] Three independent experiments were performed (n = 2 replicates).

A2780cis cells [4] = experiment: ROS photogeneration in cells (DCFH-DA probe); type: cell-based; settings: 10 μM; for ROS levels after 520 nm light, normoxia: normoxia 21% O2, 520 nm, 1 h; for ROS levels in the absence of light, normoxia: dark
Method: ROS levels were determined using the 2′-7′dichlorofluorescein diacetate (DCFH-DA) probe. A2780cis cells were seeded onto 96-well black plates at 2 × 10^4cells/well for 24 h in a humidified CO2 incubator either in normoxia (21% O2) or hypoxia (2% O2). Tested compounds were then administered in cell media for the allowed time. Treatments were then removed, and cells were stained with 10 μM of DCFH-DA for 0.5 h. After staining, cells were washed with PBS twice and irradiated for 1 h with LED source light from Luzchem photoreactor (Canada) fitted with green lamps (final light intensity applied of 1.5 mW/cm^2 at λmax = 520 nm). Fluorescence readings were performed in FLUOstar Omega (λexc = 488 nm and λem = 530 ± 30 nm). Non-irradiated plates were used for dark conditions, whereas treated, unstained cells were used to subtract basal fluorescence of compounds and correct fluorescence readings. Unstained cells served as blank. Three independent experiments were performed with n = 3 replicates.

A2780cis MCTS = experiment: 3D multicellular tumor spheroid growth inhibition; type: cell-based; settings: 10 μM, 4 h incubation; for spheroid shrinkage compared to irradiated controls: 1 h 520 nm; for tumor growth of A2780cis spheres after PDT treatment: 1 h 520 nm on day 3, followed 7 days
Method: Briefly, a single suspension of A2780cis cells at a density of 5 × 10^3 cells/well in complete RPMI medium was dispatched onto 96-well Corning microplates with ultralow attachment surface coating. The plates were covered and transferred to an incubator at 310 K with a 5% CO2 atmosphere. After 3 days post-seeding, uniform MCTSs were formed, which was confirmed using an inverted Zeiss AXIO observer 7 microscope. Cell media of MCTSs was changed by replacing 50% with fresh cell media and allowed to grow for 3 days. On day 3, MTCS was incubated with tested agents (10 μM) for 4 h and then irradiated with 520 nm light for 1 h. Treatments were then carefully removed, and fresh media was added. The integrity, radius, size, and volume of the MCTSs were monitored using a DMi1 inverted phase contrast microscope (Leica Microsystems) over 7 days. The radius of the tumorspheres was measured using Fiji software, and the volume was calculated using the following equation: V = 4/3πr^3.

[5] = Superoxide anion radical generation using DHR123; type: physicochemical; settings: 10 μM in PBS (0.2% DMSO); green light 505 nm
Method: All compounds (10 μM) were prepared in PBS (0.2% DMSO). To this solution, DHR123 was added so that its final concentration was 10 μM. Then, the samples were irradiated in 1.0 × 0.5 cm cuvette by green light (505 nm centered LED) for indicated time intervals. Immediately, the fluorescence spectra were collected by using a Photon Technology International (PTI) fluorimeter. The excitation wavelength was set to 500 nm, the excitation and emission slit widths were 2 nm, and the integration time was set to 1 s.

Q: What does the source list for `CCN(CC)c1ccc2c(c1)O/C(=C(/C#N)c1cc[n+](C)cc1)C=C2C` [1a]?
A: fold differences in bioactivity upon irradiation ([1]; melanoma cells, 520 nm): more than 86 fold; singlet oxygen quantum yield at 355 nm, ACN ([2]; ACN): < 0.01; singlet oxygen quantum yield at 532 nm, ACN ([2]; ACN, excitation 532 nm): < 0.01; singlet oxygen quantum yield at 355 nm, DCM ([2]; DCM): < 0.01; singlet oxygen quantum yield at 532 nm, DCM ([2]; DCM, excitation 532 nm): 0.03; singlet oxygen quantum yield at 355 nm, PBS ([2]; PBS): 0; singlet oxygen quantum yield at 532 nm, PBS ([2]; PBS, excitation 532 nm): < 0.01

Q: For `CC1=C/C(=C(\C#N)c2cc[n+](C)cc2)Oc2ccccc21` [1b], which “antiproliferative activity after light irradiation” value ([1]; 520 nm, investigated cancer cells) is on record?
A: The value was “did not display antiproliferative activity after light irradiation”.

Q: For `CC1=C/C(=C(\C#N)c2cc[n+](C)cc2)Oc2c1cc1c3c2CCCN3CCC1` [1c], which IC50 [1] is on record?
A: The IC50 was 5 to 26 µM.

Q: Which “Intracellular Ir levels” value (A2780cis cells [3]) does the source give for `CCCCn1c2[n+](c3cc(C(=O)OC)ccc31)[Ir-3]13([c]4ccccc4-c4[nH]c5ccccc5[n+]41)([c]1ccccc1-c1[nH]c4ccccc4[n+]13)[n+]1c-2ccc2ccccc21` [2a] here?
A: The value was 276 ± 12 ng/10^6 cells.

Q: What about the “singlet oxygen quantum yield at 355 nm, ACN” value ([2]; ACN) of the same compound?
A: The value was 0.42.

Q: And the “singlet oxygen quantum yield at 355 nm, DCM” value ([2]; DCM)?
A: The value was 0.23.

Q: What about the “singlet oxygen quantum yield at 355 nm, PBS” value ([2]; PBS) of the same compound?
A: The value was < 0.01.

Q: Which “ROS levels after 520 nm light, normoxia” value (A2780cis cells [4]) does the source give for `CCCCn1c2[n+](c3cc(C(=O)NCCCNC(=O)C[n+]4ccc(/C(C#N)=C5/C=C(C)c6ccc(N(CC)CC)cc6O5)cc4)ccc31)[Ir-3]13([c]4ccccc4-c4[nH]c5ccccc5[n+]41)([c]1ccccc1-c1[nH]c4ccccc4[n+]13)[n+]1c-2ccc2ccccc21` [3a] here?
A: Its value is “strong fluorescence signal”.

Q: And the “ROS levels in the absence of light, normoxia” value (from here on “ROS levels in the absence”) (A2780cis cells [4])?
A: Its value is “slightly increased ROS levels”.

Q: And the “spheroid shrinkage compared to irradiated controls” value (A2780cis MCTS)?
A: Its value is “statistically significant shrank”.

Q: What about the “tumor growth of A2780cis spheres after PDT treatment” value (“tumor growth of A2780cis spheres” below) (A2780cis MCTS) of the same compound?
A: Its value is “effectively blocked tumoral growth”.

Q: Which “ROS levels after green-light irradiation, hypoxia” value (A2780cis cells [4]; hypoxia 2% O2, 520 nm) does the source give for `CCCCn1c2[n+](c3cc(C(=O)NCCCNC(=O)C[n+]4ccc(/C(C#N)=C5/C=C(C)c6ccccc6O5)cc4)ccc31)[Ir-3]13([c]4ccccc4-c4[nH]c5ccccc5[n+]41)([c]1ccccc1-c1[nH]c4ccccc4[n+]13)[n+]1c-2ccc2ccccc21` [3b] here?
A: The value was “a slight increase in ROS levels”.

Q: What about the “superoxide anion radical generation (DHR123 fluorescence)” value [5] of the same compound?
A: The value was “highest maximum emission intensity of superoxide generation”.

Q: And the “tumor growth of A2780cis spheres” value (A2780cis MCTS)?
A: The value was “did not show significant tumor inhibition effects”.

Q: For `CCCCn1c2[n+](c3cc(C(=O)NCCCNC(=O)C[n+]4ccc(/C(C#N)=C5/C=C(C)c6cc7c8c(c6O5)CCCN8CCC7)cc4)ccc31)[Ir-3]13([c]4ccccc4-c4[nH]c5ccccc5[n+]41)([c]1ccccc1-c1[nH]c4ccccc4[n+]13)[n+]1c-2ccc2ccccc21` [3c], which “ROS levels after 520 nm light, normoxia” value (A2780cis cells [4]) is on record?
A: The value was “strong fluorescence signal”.

Q: And the IC50 [1]?
A: The IC50 was > 100 µM.

Q: What about the “Intracellular Ir levels” value (A2780cis cells [3]) of the same compound?
A: Its value is 461 ± 74 ng/10^6 cells.

Q: What about the “superoxide anion radical generation (DHR123 fluorescence)” value [5] of the same compound?
A: Its value is “fastest rates in superoxide generation”.

Q: What about the “tumor growth of A2780cis spheres” value (A2780cis MCTS) of the same compound?
A: Its value is “did not show significant tumor inhibition effects”.

Q: For `CCCCn1c2[n+](c3cc(C(=O)NCCCCCC(=O)NCCCNC(=O)C[n+]4ccc(/C(C#N)=C5/C=C(C)c6ccc(N(CC)CC)cc6O5)cc4)ccc31)[Ir-3]13([c]4ccccc4-c4[nH]c5ccccc5[n+]41)([c]1ccccc1-c1[nH]c4ccccc4[n+]13)[n+]1c-2ccc2ccccc21` [3d], which “ROS levels after 520 nm light, normoxia” value (A2780cis cells [4]) is on record?
A: The value was “strong fluorescence signal”.

Q: And the “ROS levels in the absence” value (A2780cis cells [4])?
A: The value was “slightly increased ROS levels”.

Q: What about the “tumor growth of A2780cis spheres” value (A2780cis MCTS) of the same compound?
A: Its value is “effectively blocked tumoral growth”.

Q: With `CCCCn1c2[n+](c3cc(C(=O)NC[C@H]4CC[C@H](C(=O)NCCCNC(=O)C[n+]5ccc(/C(C#N)=C6/C=C(C)c7ccc(N(CC)CC)cc7O6)cc5)CC4)ccc31)[Ir-3]13([c]4ccccc4-c4[nH]c5ccccc5[n+]41)([c]1ccccc1-c1[nH]c4ccccc4[n+]13)[n+]1c-2ccc2ccccc21` [3e] as the compound, how does the “ROS levels after 520 nm light, normoxia” value (A2780cis cells [4]) read?
A: The value was “strong fluorescence signal”.

Q: What about the “ROS levels in the absence” value (A2780cis cells [4]) of the same compound?
A: The value was “slightly increased ROS levels”.

Q: And the “spheroid shrinkage compared to irradiated controls” value (A2780cis MCTS)?
A: Its value is “statistically significant shrank”.

Q: And the “tumor growth of A2780cis spheres” value (A2780cis MCTS)?
A: Its value is “effectively blocked tumoral growth”.
